How the values were obtained:
HDAC5 = HDAC5 (Homo sapiens, UniProt Q9UQL6); assay: HDAC isoform inhibition (BPS Bioscience)
HDAC10 = HDAC10 (Homo sapiens, UniProt Q969S8); assay: HDAC isoform inhibition (BPS Bioscience)
Chain of HDAC10 (Q969S8 whole entry, canonical isoform): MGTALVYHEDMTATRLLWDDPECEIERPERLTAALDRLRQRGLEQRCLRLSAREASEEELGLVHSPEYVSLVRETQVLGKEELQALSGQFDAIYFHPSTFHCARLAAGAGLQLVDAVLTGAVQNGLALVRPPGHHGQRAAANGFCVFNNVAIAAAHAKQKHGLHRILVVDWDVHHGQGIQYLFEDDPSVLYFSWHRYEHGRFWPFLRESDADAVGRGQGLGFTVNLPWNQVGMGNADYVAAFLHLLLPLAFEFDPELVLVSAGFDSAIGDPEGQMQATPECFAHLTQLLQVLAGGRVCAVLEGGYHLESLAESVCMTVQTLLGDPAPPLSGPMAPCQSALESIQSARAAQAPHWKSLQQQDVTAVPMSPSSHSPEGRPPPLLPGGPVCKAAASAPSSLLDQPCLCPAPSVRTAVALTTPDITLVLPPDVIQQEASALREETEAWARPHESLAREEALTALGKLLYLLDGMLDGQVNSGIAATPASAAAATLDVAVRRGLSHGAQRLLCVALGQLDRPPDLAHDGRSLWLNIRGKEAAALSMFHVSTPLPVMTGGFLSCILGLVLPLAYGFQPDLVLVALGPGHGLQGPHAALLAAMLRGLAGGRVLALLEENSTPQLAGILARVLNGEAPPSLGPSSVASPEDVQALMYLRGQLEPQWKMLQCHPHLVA

Chain of HDAC5 (Q9UQL6 whole entry, canonical isoform): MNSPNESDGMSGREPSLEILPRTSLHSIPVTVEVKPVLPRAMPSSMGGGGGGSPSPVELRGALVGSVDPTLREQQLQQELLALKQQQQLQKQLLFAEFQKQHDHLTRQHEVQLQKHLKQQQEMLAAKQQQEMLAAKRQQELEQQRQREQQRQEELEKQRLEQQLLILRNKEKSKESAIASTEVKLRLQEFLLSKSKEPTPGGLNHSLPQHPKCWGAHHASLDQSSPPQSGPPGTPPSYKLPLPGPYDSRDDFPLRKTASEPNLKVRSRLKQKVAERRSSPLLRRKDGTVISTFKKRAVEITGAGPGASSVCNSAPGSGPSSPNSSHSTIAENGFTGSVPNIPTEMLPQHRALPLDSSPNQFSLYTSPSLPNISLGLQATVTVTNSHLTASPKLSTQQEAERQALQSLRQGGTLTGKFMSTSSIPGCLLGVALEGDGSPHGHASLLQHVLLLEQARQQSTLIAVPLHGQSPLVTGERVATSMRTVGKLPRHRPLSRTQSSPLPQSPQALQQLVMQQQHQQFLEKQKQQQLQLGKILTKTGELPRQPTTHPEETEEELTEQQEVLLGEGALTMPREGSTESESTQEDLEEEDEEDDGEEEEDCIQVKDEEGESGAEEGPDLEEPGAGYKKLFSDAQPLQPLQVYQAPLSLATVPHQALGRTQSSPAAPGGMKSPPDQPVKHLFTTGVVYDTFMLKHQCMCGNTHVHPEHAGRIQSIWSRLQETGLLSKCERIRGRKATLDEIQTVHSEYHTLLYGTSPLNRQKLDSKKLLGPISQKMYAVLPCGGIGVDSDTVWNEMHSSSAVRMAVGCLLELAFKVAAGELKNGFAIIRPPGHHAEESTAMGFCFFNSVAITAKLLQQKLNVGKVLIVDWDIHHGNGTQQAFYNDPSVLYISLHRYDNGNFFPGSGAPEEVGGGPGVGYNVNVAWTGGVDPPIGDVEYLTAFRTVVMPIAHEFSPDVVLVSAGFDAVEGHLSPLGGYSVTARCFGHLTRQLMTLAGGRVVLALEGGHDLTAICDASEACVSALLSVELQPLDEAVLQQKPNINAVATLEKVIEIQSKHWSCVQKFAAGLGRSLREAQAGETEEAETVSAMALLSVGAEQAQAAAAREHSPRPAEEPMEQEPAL

Compound: O=C(CCCCCCn1cc(-c2ccc(O[C@H]3O[C@H](CO)[C@@H](O)[C@H](O)[C@H]3O)cc2)nn1)NO [STR-V-53]
- IC50 (HDAC5): 7 µM
- IC50 (HDAC10): 0.054 µM

From article PMC11475281, “A Novel Liver Cancer-Selective Histone Deacetylase Inhibitor Is Effective against Hepatocellular Carcinoma and Induces Durable Responses with Immunotherapy” (ACS Pharmacology & Translational Science, 2024)
